Experimental data reported in BindingDB's records for doi:10.7270/Q22F7KMG (Eli Lilly, 1995).

What was measured:
[1] = target: T1, Dimer of Gag-Pol polyprotein [489-587] (Human immunodeficiency virus 1, UniProt P12497); assay: Protease Inhibition Assay; settings: pH 5.5; 22 °C
T1 construct: 489-587
From the text: (§1) In the presence of HIV-l protease, the substrate is rapidly cleaved into two parts. The biotinylated amino terminal fragment binds to the avidin Pandex beads while the FITC-containing carboxy1 terminal fragment is removed through the membrane.

[2] = target: T2, Gag-Pol polyprotein [489-587] (Human immunodeficiency virus 1, UniProt P04585); assay: Protease Inhibition Assay
T2 construct: 489-587
From the text: as §1

Compound	IC50 [1]	IC50 [2]
CC(C)(C)NC(=O)[C@@H]1C[C@@H]2SCC[C@@H]2CN1C[C@@H](O)[C@H](Cc1ccccc1)NC(=O)[C@@H](CS(=O)(=O)c1cccc2cccnc12)NS(C)(=O)=O [(3aR,6S,7aS)-N-tert-butyl-5-[(2R,3S)-2-hydroxy-3-[(2S)-2-methanesulfonamido-3-(quinoline-8-sulfonyl)propanamido]-4-phenylbutyl]-octahydrothieno[3,2-c]pyridine-6-carboxamide]	0.71 nM	0.71 nM
CC(=O)N[C@H](CS(=O)(=O)c1ccc2ccccc2c1)C(=O)N[C@@H](Cc1ccccc1)[C@H](O)CN1C[C@H]2CCCC[C@H]2C[C@H]1C(=O)NC(C)(C)C [(3S,4aS,8aS)-N-tert-butyl-2-[(2R,3S)-3-[(2S)-2-acetamido-3-(naphthalene-2-sulfonyl)propanamido]-2-hydroxy-4-phenylbutyl]-decahydroisoquinoline-3-carboxamide]	1.6 nM	1.6 nM
CC(C)(C)NC(=O)[C@@H]1C[C@@H]2CCCC[C@@H]2CN1C[C@@H](O)[C@H](Cc1ccccc1)NC(=O)[C@@H](CS(=O)(=O)c1ccc(F)cc1)NS(C)(=O)=O [Saquinavir/Nelfinavir deriv.]	2 nM	2 nM
CC(=O)N[C@H](CS(=O)(=O)c1cccc2cccnc12)C(=O)N[C@@H](Cc1ccccc1)[C@H](O)CN1C[C@H]2CCS[C@H]2C[C@H]1C(=O)NC(C)(C)C [(3aR,6S,7aS)-N-tert-butyl-5-[(2R,3S)-3-[(2S)-2-acetamido-3-(quinoline-8-sulfonyl)propanamido]-2-hydroxy-4-phenylbutyl]-octahydrothieno[3,2-c]pyridine-6-carboxamide]	0.42 nM	0.42 nM
CC(C)(C)NC(=O)[C@@H]1C[C@@H]2SCC[C@@H]2CN1C[C@@H](O)[C@H](Cc1ccccc1)NC(=O)[C@@H](CS(=O)(=O)c1ccc(F)cc1)NS(C)(=O)=O [(3aR,6S,7aS)-N-tert-butyl-5-[(2R,3S)-3-[(2S)-3-[(4-fluorobenzene)sulfonyl]-2-methanesulfonamidopropanamido]-2-hydroxy-4-phenylbutyl]-octahydrothieno[3,2-c]pyridine-6-carboxamide]	0.22 nM	0.22 nM
CC(C)CN(C[C@@H](O)[C@H](Cc1ccccc1)NC(=O)[C@@H](CS(=O)(=O)c1ccc(F)cc1)NS(C)(=O)=O)C(=O)NC(C)(C)C [(2S)-N-[(2S,3R)-4-[(tert-butylcarbamoyl)(2-methylpropyl)amino]-3-hydroxy-1-phenylbutan-2-yl]-3-[(4-fluorobenzene)sulfonyl]-2-methanesulfonamidopropanamide]	10 nM	10 nM
CC(C)(C)NC(=O)[C@@H]1C[C@@H]2SCC[C@@H]2CN1C[C@@H](O)[C@H](CSc1ccccc1)NC(=O)[C@@H](CS(=O)(=O)c1ccc2ccccc2c1)NC(=O)C(F)(F)F [(3aR,6S,7aS)-N-tert-butyl-5-[(2R,3R)-2-hydroxy-3-[(2S)-3-(naphthalene-2-sulfonyl)-2-(2,2,2-trifluoroacetamido)propanamido]-4-(phenylsulfanyl)butyl]-octahydrothieno[3,2-c]pyridine-6-carboxamide]	1.8 nM	1.8 nM
CC(C)(C)NC(=O)[C@@H]1C[C@@H]2CCCC[C@@H]2CN1C[C@@H](O)[C@H](Cc1ccccc1)NC(=O)[C@@H](CS(=O)(=O)c1ccc2ccccc2c1)NS(C)(=O)=O [(3S,4aS,8aS)-N-tert-butyl-2-[(2R,3S)-2-hydroxy-3-[(2S)-2-methanesulfonamido-3-(naphthalene-2-sulfonyl)propanamido]-4-phenylbutyl]-decahydroisoquinoline-3-carboxamide]	0.5 nM	0.5 nM
CC(C)CN(C[C@@H](O)[C@H](Cc1ccccc1)NC(=O)[C@@H](C[S+]([O-])c1ccc2ccccc2c1)NS(C)(=O)=O)C(=O)NC(C)(C)C (stereo partly drawn) [(2S)-N-[(2S,3R)-4-[(tert-butylcarbamoyl)(2-methylpropyl)amino]-3-hydroxy-1-phenylbutan-2-yl]-2-methanesulfonamido-3-(naphthalene-2-sulfinyl)propanamide]	2.1 nM	2.1 nM
CC(C)CN(C[C@@H](O)[C@H](Cc1ccccc1)NC(=O)[C@@H](CSc1ccc2ccccc2c1)NS(C)(=O)=O)C(=O)NC(C)(C)C [(2S)-N-[(2S,3R)-4-[(tert-butylcarbamoyl)(2-methylpropyl)amino]-3-hydroxy-1-phenylbutan-2-yl]-2-methanesulfonamido-3-(naphthalen-2-ylsulfanyl)propanamide]	50 nM	50 nM
CC(=O)N[C@H](CS(=O)(=O)c1ccc2ccccc2c1)C(=O)N[C@@H](Cc1ccccc1)[C@H](O)CN1C[C@H]2CCS[C@H]2C[C@H]1C(=O)NC(C)(C)C [(3aR,6S,7aS)-N-tert-butyl-5-[(2R,3S)-3-[(2S)-2-acetamido-3-(naphthalene-2-sulfonyl)propanamido]-2-hydroxy-4-phenylbutyl]-octahydrothieno[3,2-c]pyridine-6-carboxamide]	0.5 nM	0.5 nM
CC(C)(C)NC(=O)[C@@H]1C[C@@H]2SCC[C@@H]2CN1C[C@@H](O)[C@H](CSc1ccccc1)NC(=O)[C@@H](CS(=O)(=O)c1ccc(F)cc1)NC(=O)C(F)(F)F [(3aR,6S,7aS)-N-tert-butyl-5-[(2R,3R)-3-[(2S)-3-[(4-fluorobenzene)sulfonyl]-2-(2,2,2-trifluoroacetamido)propanamido]-2-hydroxy-4-(phenylsulfanyl)butyl]-octahydrothieno[3,2-c]pyridine-6-carboxamide]	10 nM	10 nM
CC(C)(C)NC(=O)[C@@H]1C[C@@H]2CCCC[C@@H]2CN1C[C@@H](O)[C@H](Cc1ccccc1)NC(=O)[C@@H](C[S+]([O-])c1ccc2ccccc2c1)NS(C)(=O)=O (some centres not stated)	0.4 nM	0.4 nM
CC(C)(C)NC(=O)[C@@H]1C[C@@H]2CCCC[C@@H]2CN1C[C@@H](O)[C@H](Cc1ccccc1)NC(=O)[C@@H](CSc1ccc(F)cc1)NS(C)(=O)=O [(3S,4aS,8aS)-N-tert-butyl-2-[(2R,3S)-3-[(2S)-3-[(4-fluorophenyl)sulfanyl]-2-methanesulfonamidopropanamido]-2-hydroxy-4-phenylbutyl]-decahydroisoquinoline-3-carboxamide]	24 nM	24 nM
CC(C)(C)NC(=O)[C@@H]1C[C@@H]2CCCC[C@@H]2CN1C[C@@H](O)[C@H](Cc1ccccc1)NC(=O)[C@@H](CSc1ccc2ccccc2c1)NS(C)(=O)=O [(3S,4aS,8aS)-N-tert-butyl-2-[(2R,3S)-2-hydroxy-3-[(2S)-2-methanesulfonamido-3-(naphthalen-2-ylsulfanyl)propanamido]-4-phenylbutyl]-decahydroisoquinoline-3-carboxamide]	5.1 nM	5.1 nM
CC(C)CN(C[C@@H](O)[C@H](Cc1ccccc1)NC(=O)[C@@H](CSc1ccc(F)cc1)NS(C)(=O)=O)C(=O)NC(C)(C)C [(2S)-N-[(2S,3R)-4-[(tert-butylcarbamoyl)(2-methylpropyl)amino]-3-hydroxy-1-phenylbutan-2-yl]-3-[(4-fluorophenyl)sulfanyl]-2-methanesulfonamidopropanamide]	85 nM	85 nM
CC(C)(C)NC(=O)[C@@H]1C[C@@H]2CCCC[C@@H]2CN1C[C@@H](O)[C@H](Cc1ccccc1)NC(=O)[C@@H](C[S+]([O-])c1ccc(F)cc1)NS(C)(=O)=O (stereo partly drawn) [(3S,4aS,8aS)-N-tert-butyl-2-[(2R,3S)-3-[(2S)-3-[(4-fluorobenzene)sulfinyl]-2-methanesulfonamidopropanamido]-2-hydroxy-4-phenylbutyl]-decahydroisoquinoline-3-carboxamide]	0.6 nM	0.6 nM
CC(C)(C)NC(=O)[C@@H]1C[C@@H]2SCC[C@@H]2CN1C[C@@H](O)[C@H](Cc1ccccc1)NC(=O)[C@@H](CS(=O)(=O)c1cccc2cccnc12)NC(=O)C(F)(F)F [(3aR,6S,7aS)-N-tert-butyl-5-[(2R,3S)-2-hydroxy-4-phenyl-3-[(2S)-3-(quinoline-8-sulfonyl)-2-(2,2,2-trifluoroacetamido)propanamido]butyl]-octahydrothieno[3,2-c]pyridine-6-carboxamide]	0.21 nM	0.21 nM
CC(=O)N[C@H](CSCc1ccccc1)C(=O)N[C@@H](Cc1ccccc1)[C@H](O)CN1C[C@H]2CCCC[C@H]2C[C@H]1C(=O)NC(C)(C)C [(3S,4aS,8aS)-2-[(2R,3S)-3-[(2S)-3-(benzylsulfanyl)-2-acetamidopropanamido]-2-hydroxy-4-phenylbutyl]-N-tert-butyl-decahydroisoquinoline-3-carboxamide]	6 nM	6 nM
CC(=O)N[C@H](CS(=O)(=O)c1ccc(F)cc1)C(=O)N[C@@H](CSc1ccccc1)[C@H](O)CN1C[C@H]2CCS[C@H]2C[C@H]1C(=O)NC(C)(C)C [(3aR,6S,7aS)-N-tert-butyl-5-[(2R,3R)-3-[(2S)-2-acetamido-3-[(4-fluorobenzene)sulfonyl]propanamido]-2-hydroxy-4-(phenylsulfanyl)butyl]-octahydrothieno[3,2-c]pyridine-6-carboxamide]	1.8 nM	1.8 nM
CC(=O)N[C@H](CS(=O)(=O)c1cccc2cccnc12)C(=O)N[C@@H](Cc1ccccc1)[C@H](O)CN1C[C@H]2CCCC[C@H]2C[C@H]1C(=O)NC(C)(C)C [(3S,4aS,8aS)-N-tert-butyl-2-[(2R,3S)-3-[(2S)-2-acetamido-3-(quinoline-8-sulfonyl)propanamido]-2-hydroxy-4-phenylbutyl]-decahydroisoquinoline-3-carboxamide]	1.7 nM	1.7 nM
